Test results as given in patent publication US20130217639A1, “COMPOUND FOR ACTIVATING NATURAL KILLER T CELLS AND PREPARING METHOD THEREOF” (NATIONAL TSING HUA UNIVERSITY, priority 2012, published 2013).
Entries after “also recorded” stand apart in the source; their conditions may differ.

System: human Vα24+/Vβ11+ iNKT cells
Test: Stimulation of human Vα24+/Vβ11+ NKT cell populations in PBMC culture, flow cytometry
Type: cell-based
Settings: PBMC from a normal healthy donor, 100 nM, 14 days of culture
Method: Peripheral blood mononuclear cells (PBMC) from a normal healthy donor were incubated with each individual compound at a final concentration of 100 nM. After 14 days of culture, NKT cell frequencies were determined by flow cytometry. NKT cell frequencies were defined as the percentage of Vα24+/V−β11+ cells among gated lymphocytes in the upper right (UR) corner for each case. Shown here are the profiles of PBMC harvested from 14-day cultures containing (a) vehicle alone (DMSO, UN), or (b) 100 nM of α-GalCer (KS), (c) analog 18 (DABB), or (d) analog 19 (DAGBB), as indicated.
The less toxic product mixtures were further examined. These sample mixtures after simple filtration through silica gel were submitted to analysis with ESI-MS. […] Among them, 4-benzyl benzoic acid derived amide product showing the most significant signals was resynthesized in both its ceramidic form 18 and galactosyl ceramidic form 19 (Scheme 6). The subsequent validation experiment was performed by MTT assay and flowcytotmetry (FIG. 4). […] This confirmed the important role played by sugar moieties.

Structure (SMILES): CCCCCCCCCCCCCC[C@@H](O)[C@@H](O)[C@H](CO[C@H]1O[C@H](CNC(=O)c2ccc(CCCC)cc2)[C@H](O)[C@H](O)[C@H]1O)NC(=O)c1ccc(CCCC)cc1 [analog 19, 4-butyl-N-(((2R,3R,4S,5R,6S)-6-(((2S,3S,4R)-2-(4-butylbenzamido)-3,4-dihydroxyoctadecyl)oxy)-3,4,5-trihydroxytetrahydro-2H-pyran-2-yl)methyl)benzamide]
- stimulation of Vα24+/Vβ11+ iNKT cell population: stimulats human iNKT cell population; also recorded: stimulative
